Measured values taken from patent publication US20050233457A1, “Recombining viral vectors for the tetracycline-regulated expression of genes” (priority 2002, published 2005).

Test system: HT29 colon carcinoma cells
Assay: Luciferase expression in lysates of adenovirally infected HT29 cells
Type: cell-based, human
Conditions: HT29, Ad.3r-luc m.o.i. 30, 24 hours
Description: […], Colo205, SkCO-1, AsPc-1, HepG2, MCF-7, BT-20, HeLa, RT4 and U266 cells were seeded in six and twelve (U266) vial-plates at a concentration of 1×10^6 cells per cavity for 6 hours before transfection. The larger HeLa, RT-4 and 293 cells were seeded in a concentration of 5×10^5 cells per vial. U266 myeloma cells were allowed to grow in suspension culture and infected. Purified viral particles were diluted in media without supplementation and the cells were exposed to 500 μl of the suitable virus dilution per vial for 1 hour. After removal of the infectious supernatant, complete media which had been supplemented with different concentrations of doxycycline, were added. The media were changed every 24 hours.
24 hours after infection with Ad.CMV-luc or Ad.3r-luc, the cells were harvested with 150 μl of cell culture lysis reagent according to the manufacturer's (Promega) instructions. The luciferase activity in 20 μl of cell lysate was measured using a Bertold LB9507 luminometer and luciferase assay substrate (Promega). […] The protein concentration was determined using the DC protein assay kit (BioRad, Hercules, Calif.).
Human colon carcinoma cells HT29 are extremely receptive for adenoviral transduction, as has been shown previously (A. Block et al. Cancer Gene Therapy 7 (2000) 438-445). […] The luciferase activity was determined in cell lysates in relation to the dissolved cell protein. […]

## C[C@H]1c2cccc(O)c2C(=O)C2=C(O)[C@]3(O)C(=O)C(C(N)=O)=C(O)[C@@H](N(C)C)[C@@H]3[C@@H](O)[C@@H]21 [doxycycline]
  doxycycline concentration leading to a significant reduction in gene expression: 100 pg/mL
